Experimental data taken from patent US8026359B2, “Fungicidal heterocyclic amines” (E.I. du Pont de Nemours and Company, priority 2007, dated 2011).
Marks after values point to notes of the source that are not given here.

Tests used:
Type in all cases: in vivo
Septoria tritici = experiment: Test D: wheat leaf blotch, preventive spray on wheat seedlings; conditions: 200 ppm, 100 = 100% disease control, 0 = no control relative to controls; for pest or weed control at 200 ppm: Zymoseptoria tritici, 504 h, read-out: Test D disease control rating
Description: (§1) General protocol for preparing test suspensions for Tests A-R: The test compounds were first dissolved in acetone in an amount equal to 3% of the final volume and then suspended at the desired concentration (in ppm) in acetone and purified water (50/50 mix) containing 250 ppm of the surfactant Trem® 014 (polyhydric alcohol esters). The resulting test suspensions were then used in tests A-R. In Tests A-M, compounds were sprayed as a 200 ppm test suspension (equivalent to a rate of 500 g/ha) or as a 40 ppm test suspension to the point of runoff on the test plants. In Tests N-R, compounds were sprayed as a 100 g/ha test suspension (equivalent to a rate of 100 ppm) on the test plants at an application volume of 1000 L/ha. The test suspension was sprayed to the point of run-off on wheat seedlings.

Botrytis cinerea = experiment: Test F: tomato Botrytis, preventive spray on tomato seedlings; conditions: 200 ppm, 100 = 100% disease control, 0 = no control relative to controls; for pest or weed control at 200 ppm: Botrytis cinerea, 120 h, read-out: Test F disease control rating
Description: as §1, with “tomato” for “wheat”

Fusarium graminearum = experiment: whole plant or invertebrate; conditions: for pest or weed control at 200 ppm: Fusarium graminearum, in Triticum aestivum, 192 h, read-out: Test E disease control rating; for Test E disease control rating: 200 ppm, 100 = 100% disease control, 0 = no control relative to controls
[1] = test system: Puccinia recondita f. sp. tritici; experiment: Test B: wheat leaf rust, preventive spray on wheat seedlings; conditions: 200 ppm, 100 = 100% disease control, 0 = no control relative to controls; for pest or weed control at 200 ppm: Puccinia recondita, 192 h, read-out: Test B disease control rating
Description: as §1

Alternaria solani = experiment: Test H: tomato early blight, preventive spray on seedlings
Description: as §1

[2] = test system: Colletotrichum orbiculare; experiment: Test I: cucumber Colletotrichum anthracnose, preventive spray on cucumber seedlings; conditions: 100 = 100% disease control, 0 = no control relative to controls; for pest or weed control at 200 ppm: Colletotrichum orbiculare, 144 h, read-out: Test I disease control rating; for Test I disease control rating: 200 ppm
Description: as §1, with “cucumber” for “wheat”

Septoria nodorum = experiment: Test C: wheat glume blotch, preventive spray on wheat seedlings; conditions: 200 ppm, 100 = 100% disease control, 0 = no control relative to controls; for pest or weed control at 200 ppm: Parastagonospora nodorum, 216 h, read-out: Test C disease control rating
Description: as §1

[3] = test system: Erysiphe graminis f. sp. tritici; experiment: Test A: wheat powdery mildew, preventive spray on wheat seedlings; conditions: 200 ppm, 100 = 100% disease control, 0 = no control relative to controls; for pest or weed control at 200 ppm: Blumeria graminis, 192 h, read-out: Test A disease control rating
Description: as §1

[4] = 200 ppm, 100 = 100% disease control, 0 = no control relative to controls

Row | SMILES | pest or weed control at 200 ppm (Septoria tritici) [%] | pest or weed control at 200 ppm (Botrytis cinerea) [%] | pest or weed control at 200 ppm (Fusarium graminearum) [%] | pest or weed control at 200 ppm [1] [%] | pest or weed control at 200 ppm (Alternaria solani; Alternaria solani, 168 h, 200 ppm, 100 = 100% disease control, 0 = no control relative to controls, read-out: Test H disease control rating) [%] | pest or weed control at 200 ppm [2] [%] | pest or weed control at 200 ppm (Septoria nodorum) [%] | Test D disease control rating (Septoria tritici) [%] | Test F disease control rating (Botrytis cinerea) [%] | Test E disease control rating (Fusarium graminearum) [%] | Test B disease control rating [1] [%] | Test H disease control rating (Alternaria solani; [4]) [%] | Test I disease control rating [2] [%] | Test C disease control rating (Septoria nodorum) [%] | Test H disease control rating (Alternaria solani; 40 ppm (marked *)) | pest or weed control at 200 ppm [3] [%] | Test A disease control rating [3] [%]
1 | COC[C@H](C)Nc1nccc(-c2ncnc(Nc3cccc(F)c3)n2)n1 [Compound 5, N-(3-fluorophenyl)-4-[2-[[(1S)-2-methoxy-1-methylethyl]amino]-4-pyrimidinyl]-1,3,5-triazin-2-amine] | 98 | 80 | 98 | 100 | 0 | 99 | 100 | – | – | – | – | – | – | – | – | – | –
2 | COCC(C)(C)Nc1nccc(-c2ncnc(Nc3cccc(F)c3)n2)n1 [Compound 6] | – | – | – | – | – | – | – | 58 | 85 | 84 | 97 | 98 | 0 | 100 | – | – | –
3 | CC(CO)Nc1nccc(-c2ncnc(Nc3cccc(F)c3)n2)n1 (stereo not drawn) [Compound 7] | – | – | – | – | – | – | – | 87 | 0 | 0 | 99 | 0 | 96 | 100 | – | – | –
4 | COC[C@H](C)Nc1nccc(-c2ncnc(Nc3cccc(I)c3)n2)n1 [Compound 12] | – | – | – | – | – | – | – | 0 | 37 | 96 | 79 | 98 | – | 100 | – | – | –
5 | COC[C@H](C)Nc1nccc(-c2ncnc(Nc3ccc(F)cc3)n2)n1 [Compound 13] | – | – | – | – | – | – | – | 26 | 87 | 96 | 100 | – | – | 100 | 98* % | – | –
6 | COC[C@H](C)Nc1nccc(-c2ncnc(Nc3ccc(Cl)c(Cl)c3)n2)n1 [Compound 14] | – | – | – | – | – | – | – | 0 | 55 | 92 | 79 | 95 | – | 100 | – | – | –
7 | COC[C@H](C)Nc1nccc(-c2ncnc(Nc3ccc(C)c(C)c3)n2)n1 [Compound 24] | – | – | – | – | – | – | – | 24 | 70 | 99 | 97 | 100 | – | 100 | – | – | –
8 | COC[C@H](C)Nc1nccc(-c2ncnc(Nc3ccc(F)c(F)c3)n2)n1 [Compound 29] | – | – | – | – | – | – | – | 90 | 91 | 99 | 100 | – | – | 100 | 97* % | – | –
9 | COCCC(C)Nc1nccc(-c2ccnc(Nc3cccc(F)c3)c2)n1 (stereo not drawn) [Compound 84, 4-[2-[(3-fluorophenyl)amino]-4-pyridinyl]-N-(3-methoxy-1-methylpropyl)-2-pyrimidinamine] | 59 | 99 | 0 | 91 | – | 0 | 99 | – | – | – | – | – | – | – | – | 28 | –
10 | COCC(C)Nc1nccc(-c2ccnc(Nc3c(C)cccc3OC)c2)n1 (stereo not drawn) [Compound 85] | – | – | – | – | – | – | – | 0 | 93 | 0 | 94 | – | 96 | 99 | – | – | 56
11 | COCC(C)Nc1nccc(-c2ccnc(Nc3c(C)ccc4ccccc34)c2)n1 (stereo not drawn) [Compound 86] | – | – | – | – | – | – | – | 0 | 96 | 0 | 55 | – | 0 | 94 | – | – | 27
12 | COCC(C)Nc1nccc(-c2ccnc(Nc3c(C)cc(C)cc3Cl)c2)n1 (stereo not drawn) [Compound 87] | – | – | – | – | – | – | – | 49 | 96 | 0 | 95 | – | 88 | 100 | – | – | 87
13 | COc1cccc(C)c1Nc1cc(-c2ccnc(NC3CCOCC3)n2)ccn1 [Compound 88] | – | – | – | – | – | – | – | 0 | 0 | 91 | 100 | – | 0 | 97 | – | – | 99
14 | Cc1ccc2ccccc2c1Nc1cc(-c2ccnc(NC3CCOCC3)n2)ccn1 [Compound 89] | – | – | – | – | – | – | – | 0 | 99 | 89 | 95 | – | 0 | 100 | – | – | 74
15 | COCC(C)Nc1nccc(-c2ccnc(Nc3cc(F)ccc3C)c2)n1 (stereo not drawn) [Compound 91] | – | – | – | – | – | – | – | 7 | 98 | 19 | 99 | – | 0 | 94 | – | – | 97
16 | COCC(C)Nc1nccc(-c2ccnc(Nc3c(C)ccc(Cl)c3C)c2)n1 (stereo not drawn) [Compound 92] | – | – | – | – | – | – | – | 65 | 99 | 0 | 94 | – | 0 | 100 | – | – | 91
17 | COCC(C)Nc1nccc(-c2ccnc(Nc3c(C)cc(Cl)cc3Cl)c2)n1 (stereo not drawn) [Compound 93] | – | – | – | – | – | – | – | 78 | 98 | 66 | 99 | – | 0 | 100 | – | – | 84
18 | COCC(C)Nc1nccc(-c2ccnc(Nc3c(Cl)cccc3C(F)(F)F)c2)n1 (stereo not drawn) [Compound 97] | – | – | – | – | – | – | – | 67 | 99 | 48 | 97 | – | 93 | 100 | – | – | 0
19 | FC(F)(F)c1cccc(Cl)c1Nc1cc(-c2ccnc(NC3CCOCC3)n2)ccn1 [Compound 98] | – | – | – | – | – | – | – | 83 | 91 | 97 | 99 | – | 0 | 99 | – | – | 89
20 | COCC(C)Nc1nccc(-c2cc(Nc3cccc(F)c3)ncn2)n1 (stereo not drawn) [Compound 109, N^6′-(3-fluorophenyl)-N^2-(2-methoxy-1-methylethyl) [4,4′-bipyrimidine]-2,6′-diamine] | 5 | 0 | 0 | 96 | – | 9 | 94 | – | – | – | – | – | – | – | – | 0 | –
